For experiment [1], the target named is T1, alcohol dehydrogenase (ADH) (Saccharomyces cerevisiae, UniProt P00330).
T1 construct: gene ADH1
T1 sequence (P00330 2-348): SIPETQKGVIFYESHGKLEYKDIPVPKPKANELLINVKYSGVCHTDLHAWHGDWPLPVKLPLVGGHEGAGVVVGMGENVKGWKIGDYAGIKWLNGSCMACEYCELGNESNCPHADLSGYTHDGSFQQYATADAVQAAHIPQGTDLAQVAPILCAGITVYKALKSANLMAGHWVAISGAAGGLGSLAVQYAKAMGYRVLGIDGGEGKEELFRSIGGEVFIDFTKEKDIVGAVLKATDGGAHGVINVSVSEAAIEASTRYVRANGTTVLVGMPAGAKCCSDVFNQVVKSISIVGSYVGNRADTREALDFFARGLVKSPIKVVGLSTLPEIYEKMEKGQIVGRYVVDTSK
As to the kind of experiment: NADH formation at […] nm. It is filed as biochemical.

The target of experiment [2] is T2, human prostacyclin synthase (PGIS), microsomal, partially purified (Homo sapiens, UniProt Q16647).
T2 construct: gene PTGIS; overexpressed in Sf21 insect cells
T2 sequence (Q16647 1-500): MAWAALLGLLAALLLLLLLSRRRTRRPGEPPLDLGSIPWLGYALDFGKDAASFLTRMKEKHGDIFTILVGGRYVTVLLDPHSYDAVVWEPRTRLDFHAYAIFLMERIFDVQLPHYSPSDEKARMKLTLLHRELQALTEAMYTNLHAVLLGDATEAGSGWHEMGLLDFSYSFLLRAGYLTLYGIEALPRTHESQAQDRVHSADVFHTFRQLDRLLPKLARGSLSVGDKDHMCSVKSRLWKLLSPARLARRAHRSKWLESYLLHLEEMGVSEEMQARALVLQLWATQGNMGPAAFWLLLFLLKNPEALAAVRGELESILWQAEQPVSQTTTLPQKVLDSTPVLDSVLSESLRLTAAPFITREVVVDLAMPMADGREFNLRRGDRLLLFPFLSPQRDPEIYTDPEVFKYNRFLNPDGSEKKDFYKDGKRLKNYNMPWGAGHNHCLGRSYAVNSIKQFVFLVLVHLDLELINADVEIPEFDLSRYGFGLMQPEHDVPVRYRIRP
As to the kind of experiment: 3-nitrotyrosine formation, Western blot and HPLC after pronase. The class given is biochemical. The source says:
3-nitrotyrosine formation, Western blot and HPLC after pronase on human prostacyclin synthase (PGIS), microsomal, partially purified | peroxynitrite-dependent nitration of an over-expressed and partially purified human prostacyclin synthase

Inhibition and EC50 data for three molecules are collected here from article PMC3645702, “Protein Tyrosine Nitration and Thiol Oxidation by Peroxynitrite—Strategies to Prevent These Oxidative Modifications” (International Journal of Molecular Sciences, 2013).

As for `S=c1[nH]c(=S)c2[nH]cnc2[nH]1` [2,6-Dithiopurine], 50 µM produced 20% inhibition in experiment [1]. Still for that read-out and setting: with `S=c1cc[nH]c(=S)[nH]1` [2,6-Dithiopyrimidine] the figure was 20%. Take `O=NOO` [peroxynitrite]: in experiment [2], the EC50 came to 5 µM.
